This is an account of results in patent EP0369388B1, “Hydroxy-1,2,3,4-tetrahydroaminoacridines, a process for their preparation and their use as medicaments” (HOECHST-ROUSSEL PHARMACEUTICALS INCORPORATED, priority 1988, dated 1990).

Counter-ions that a name gives are not always drawn. A value given as a limit tells only on which side of the number the result lay.

One test deals with acetylcholinesterase (Homo sapiens, UniProt P22303). The test is described as follows: biochemical.
Sequence of acetylcholinesterase (P22303 32-614): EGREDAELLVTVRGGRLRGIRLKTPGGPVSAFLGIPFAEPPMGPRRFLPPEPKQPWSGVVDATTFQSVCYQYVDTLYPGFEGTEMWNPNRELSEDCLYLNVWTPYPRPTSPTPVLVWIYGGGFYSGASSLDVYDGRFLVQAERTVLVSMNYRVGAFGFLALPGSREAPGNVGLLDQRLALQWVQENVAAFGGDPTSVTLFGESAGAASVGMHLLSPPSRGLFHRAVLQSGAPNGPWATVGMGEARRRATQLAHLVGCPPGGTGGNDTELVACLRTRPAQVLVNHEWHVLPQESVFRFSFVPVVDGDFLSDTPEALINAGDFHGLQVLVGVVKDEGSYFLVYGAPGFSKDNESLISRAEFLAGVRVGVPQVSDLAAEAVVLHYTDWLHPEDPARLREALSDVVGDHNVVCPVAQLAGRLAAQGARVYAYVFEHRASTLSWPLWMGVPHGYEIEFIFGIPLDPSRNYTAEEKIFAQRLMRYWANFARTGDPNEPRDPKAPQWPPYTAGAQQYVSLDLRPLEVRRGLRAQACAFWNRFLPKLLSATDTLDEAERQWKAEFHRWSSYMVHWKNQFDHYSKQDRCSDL
Conditions: not given
As for the experimental part: The ability to inhibit acetylchlinesterase was determined by the photometric method of Ellman et al., Biochem. pharmacol.
`Nc1c2c(nc3ccccc13)C(OCc1ccccc1)CCC2` (stereo not shown) [4-Benzyloxy-1,2,3,4-tetrahydro-9-acridinamine]: half-maximal inhibition (IC50) required 820 µM. `CCCCCCCC(=O)OC1CCc2nc3ccccc3c(N)c2C1` (stereo not shown) [2-Octanoyloxy-1,2,3,4-tetrahydro-9-acridinamine, fumarate]: the IC50 – broadly, the concentration at which inhibition is half-maximal – was 23 µM. Turning to `CCCC(=O)OC1CCc2nc3ccccc3c(N)c2C1` (stereo not shown) [2-Butyryloxy-1,2,3,4-tetrahydro-9-acridinamine, fumarate], the IC50 came to 4.8 µM.

The compound `CCCCCCCCCCCC(=O)OC1CCc2nc3ccccc3c(N)c2C1` (stereo not shown) [2-Lauroyloxy-1,2,3,4-tetrahydro-9-acridinamine] gave an IC50 of 160 µM.

Regarding `CCCCC(=O)OC1CCc2nc3ccccc3c(N)c2C1` (stereo not shown) [2-Valeryloxy-1,2,3,4-tetrahydro-9-acridinamine, fumarate], the IC50 came out at 12 µM. Same read-out and setting: for `CCCCCCCCCC(=O)OC1CCc2nc3ccccc3c(N)c2C1` (stereo not shown) [2-Decanoyloxy-1,2,3,4-tetrahydro-9-acridinamine, fumarate] the value was > 1000 µM; for `Nc1c2c(nc3ccccc13)CCC(OCc1ccccc1)C2` (stereo not shown) [2-Benzyloxy-1,2,3,4-tetrahydro-9-acridinamine], > 1000 µM.

The same test, now with this note: Acetylcholinesterase Inhibition; read-out: IC50 (molar conc.).
`CCCCCCCCC(=O)OC1CCc2nc3ccccc3c(N)c2C1` (stereo not shown) [2-Nonanoyloxy-1,2,3,4-tetrahydro-9-acridinamine, fumarate]: the IC50 was > 1000 µM. The same measure, in the same setting: for `Nc1c2c(nc3ccccc13)CCC(O)C2.O=C(O)/C=C\C(=O)O` (stereo not shown) [9-Amino-1,2,3,4-tetrahydroacridin-2-ol, maleate] the value was 5.3 µM; for `CCCCCC(=O)OC1CCc2nc3ccccc3c(N)c2C1.O=C(O)/C=C/C(=O)O` (stereo not shown) [2-Hexanoyloxy-1,2,3,4-tetrahydro-9-acridinamine, fumarate], 19 µM. On the same count and under the same terms, next, `Nc1c2c(nc3ccccc13)C(O)CCC2` (stereo not shown) [9-Amino-1,2,3,4-tetrahydroacridinamin-4-ol, hemifumarate]: 1.9 µM; `CN(C)C=Nc1c2c(nc3ccccc13)CCC(O)C2` (stereo not shown) [2-Hydroxy-N-(dimethylaminomethylene)-1,2,3,4-tetrahydro-9-acridinamine]: > 1000 µM; `CCCCCCC(=O)OC1CCc2nc3ccccc3c(N)c2C1` (stereo not shown) [2-Heptanoyloxy-1,2,3,4-tetrahydro-9-acridinamine, fumarate]: 31 µM. The same measure, in the same setting: next, `CC(=O)OC1CCc2nc3ccccc3c(N)c2C1` (stereo not shown) [2-Acetoxy-1,2,3,4-tetrahydro-9-acridinamine]: 6.5 µM.

For another test, the system named is mice. The test is described as follows: Dark Avoidance Assay (reversal of scopolamine induced memory deficit). It is filed as in vivo. To be noted: Dose 0.63 mg/kg of body weight, s.c; mice, retest after 24 hours. As for the experimental part:
This utility can also be ascertained by determining the ability of these compounds to restore cholinergically deficient memory in the Dark Avoidance Assay. In this assay mice are tested for their ability to remember an unpleasant stimulus for a period of 24 hours. A mouse is placed in a chamber that contains a dark compartment; a strong incadescent light drives it to the dark compartment, where an electric shock is administered through metal plates on the floor. The animal is removed from the testing apparatus and tested again, 24 hours later, for the ability to remember the electric shock.
If scopolamine, an anticholinergic that is known to cause memory impairment, is administered before an animal's initial exposure to the test chamber, the animal re-enters the dark compartment shortly after being placed in the test chamber 24 hours later. This effect of scopolamine is blocked by an active test compound, resulting in a greater interval before re-entry into the dark compartment.
The results for an active compound are expressed as the percent of a group of animals in which the effect of scopolamine is blocked, as manifested by an increased interval between being placed in the test chamber and re-entering the dark compartment.
Turning to `CCCCCC(=O)OC1CCc2nc3ccccc3c(N)c2C1.O=C(O)/C=C/C(=O)O` (stereo not shown) [2-Hexanoyloxy-1,2,3,4-tetrahydro-9-acridinamine, fumarate], the “% of Animals with Scopolamine Induced Memory Deficit Reversal” value (“% of Animals” below) amounted to 25%.

The test is the same for the next values; noted with them: Dose 5.0 mg/kg of body weight, s.c; mice, retest after 24 hours.
With `Nc1c2c(nc3ccccc13)CCC(O)C2.O=C(O)/C=C\C(=O)O` (stereo not shown) [9-Amino-1,2,3,4-tetrahydroacridin-2-ol, maleate], the “% of Animals” value turned out to be 20%. On to `CCC(=O)OC1CCc2nc3ccccc3c(N)c2C1` (stereo not shown) [2-Propionyloxy-1,2,3,4-tetrahydro-9-acridinamine, fumarate hemihydrate], for which the “% of Animals” value is 13%. As to `CC(=O)OC1CCc2nc3ccccc3c(N)c2C1` (stereo not shown) [2-Acetoxy-1,2,3,4-tetrahydro-9-acridinamine], the “% of Animals” value is 29%.

Staying with this test, now noted: mouse, in vivo, 0.31 mg/kg.
Regarding `CNC(=O)Oc1ccc2c(c1)[C@]1(C)CCN(C)[C@@H]1N2C` [Physostigmine, reference compound], the “% of Animals” value is reported as 20%.
